Reference: PubChem BioAssay AID248 (DTP/NCI, 2004)
“And” between values parts separate entries of the source, which are not always exact repeats. Equal values may be shown once. Inconclusive results and toxic doses are left out. Cut-off read from the data, not from the text of the source: active = T/C of 150% or more; inactive = T/C below 125%.

Tested on: L1210 leukemia ip in BDF1 mice, survival T/C
Experiment: NCI In Vivo Anticancer Drug Screen. Data for tumor model L1210 Leukemia (intraperitoneal) in B6D2F1 (BDF1) mice
Settings: endpoint: mean survival time, higher = longer survival
Summary of the method: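 Each compound was tested against a transplantable tumor grown in mice. The endpoint was survival, with treated animals benchmarked against vehicle controls as a simple ratio.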

[1] = dose: 100.0 mg/kg/injection, schedule: Q01DX001 (ip), vehicle: saline with Tween-80
[2] = dose: 200.0 mg/kg/injection, schedule: Q01DX001 (ip), vehicle: saline with Tween-80
[3] = dose: 400.0 mg/kg/injection, schedule: Q01DX001 (ip), vehicle: saline with Tween-80
[4] = dose: 100.0 mg/kg/injection, schedule: Q01DX001 (ip), vehicle: carboxymethylcellulose (CMC)
[5] = dose: 200.0 mg/kg/injection, schedule: Q01DX001 (ip), vehicle: carboxymethylcellulose (CMC)
[6] = dose: 400.0 mg/kg/injection, schedule: Q01DX001 (ip), vehicle: carboxymethylcellulose (CMC)
[7] = dose: 100.0 mg/kg/injection, schedule: Q01DX009 (ip), vehicle: Klucel (hydroxypropylcellulose) (HPC)
[8] = dose: 200.0 mg/kg/injection, schedule: Q01DX009 (ip), vehicle: Klucel (hydroxypropylcellulose) (HPC)
[9] = dose: 400.0 mg/kg/injection, schedule: Q01DX009 (ip), vehicle: Klucel (hydroxypropylcellulose) (HPC)

Measured: T/C

COCCN(/N=N/c1nc[nH]c1C(N)=O)C(C)(C)C
inactive: dose: 50.0 mg/kg/injection, schedule: Q01DX001 (ip), vehicle: water 100 % of control | dose: 50.0 mg/kg/injection, schedule: Q04DX003 (ip), vehicle: water 101 % of control | dose: 100.0 mg/kg/injection, schedule: Q01DX001 (ip), vehicle: water 97 % of control | dose: 100.0 mg/kg/injection, schedule: Q04DX003 (ip), vehicle: water 101 % of control | dose: 200.0 mg/kg/injection, schedule: Q01DX001 (ip), vehicle: water 92 % of control | dose: 200.0 mg/kg/injection, schedule: Q04DX003 (ip), vehicle: water 102 % of control | dose: 400.0 mg/kg/injection, schedule: Q01DX001 (ip), vehicle: water 97 % of control | dose: 400.0 mg/kg/injection, schedule: Q04DX003 (ip), vehicle: water 96 % of control

O=C(Nc1ccc(S(=O)(=O)F)cc1)OCc1ccc([N+](=O)[O-])cc1
inactive: [1] 105 % of control | [2] 95 % of control | [3] 100 % of control

Cc1cc(N(CCOS(C)(=O)=O)CCOS(C)(=O)=O)ccc1C=Nc1cc(Cl)c(O)c(Cl)c1
inactive: dose: 20.0 mg/kg/injection, schedule: Q04DX003 (ip), vehicle: Klucel (hydroxypropylcellulose) (HPC) 121 % of control | dose: 40.0 mg/kg/injection, schedule: Q04DX003 (ip), vehicle: Klucel (hydroxypropylcellulose) (HPC) 118 % of control | dose: 80.0 mg/kg/injection, schedule: Q04DX003 (ip), vehicle: Klucel (hydroxypropylcellulose) (HPC) 100 % of control

COc1ccc([N+](=O)[O-])cc1NC(=O)C(Cl)Cl
inactive: [4] 99 % of control | [5] 100 % of control | [6] 110 % of control

COC(=O)Cc1cc(C)n(C)c(=O)c1CN1C(=O)c2ccccc2C1=O
inactive: dose: 100.0 mg/kg/injection, schedule: Q04DX003 (ip), vehicle: other 102 % of control | dose: 200.0 mg/kg/injection, schedule: Q04DX003 (ip), vehicle: other 107 % of control | dose: 400.0 mg/kg/injection, schedule: Q04DX003 (ip), vehicle: other 98 % of control

Fc1cc(N(CCCl)CCCl)ccc1C=NCCCN=Cc1ccc(N(CCCl)CCCl)cc1F
inactive: [4] 95 % of control | [5] 95 % of control | [6] 111 % of control

N#Cc1ccc(O)c(N)c1
inactive: dose: 100.0 mg/kg/injection, schedule: Q01DX001 (ip), vehicle: saline 95 % of control | dose: 200.0 mg/kg/injection, schedule: Q01DX001 (ip), vehicle: saline 90 % of control | dose: 400.0 mg/kg/injection, schedule: Q01DX001 (ip), vehicle: saline 90 % of control

O=C(N=c1cc(-c2ccc(Cl)cc2)ss1)C(Cc1ccccc1)N1C(=O)c2ccccc2C1=O (stereo unspecified)
inactive: dose: 25.0 mg/kg/injection, schedule: Q01DX009 (ip), vehicle: water 102 % of control | dose: 50.0 mg/kg/injection, schedule: Q01DX009 (ip), vehicle: water 102 % of control | dose: 100.0 mg/kg/injection, schedule: Q01DX009 (ip), vehicle: water 96 % of control | dose: 200.0 mg/kg/injection, schedule: Q01DX009 (ip), vehicle: water 95 % of control | dose: 400.0 mg/kg/injection, schedule: Q01DX009 (ip), vehicle: water 87 % of control

CC(C)c1ccccc1OC(=O)NC1CCCCC1
inactive: dose: 100.0 mg/kg/injection, schedule: Q04DX002 (ip), vehicle: Klucel (hydroxypropylcellulose) (HPC) 96 % of control | dose: 200.0 mg/kg/injection, schedule: Q04DX002 (ip), vehicle: Klucel (hydroxypropylcellulose) (HPC) 110 % of control | dose: 400.0 mg/kg/injection, schedule: Q04DX002 (ip), vehicle: Klucel (hydroxypropylcellulose) (HPC) 104 % of control

COc1c(C)c(C)c(OC(C)=O)c(C)c1COC(C)=O
inactive: dose: 25.0 mg/kg/injection, schedule: Q01DX009 (ip), vehicle: saline with Tween-80 90 % of control | dose: 50.0 mg/kg/injection, schedule: Q01DX009 (ip), vehicle: saline with Tween-80 95 % of control | [1] 98 % of control | dose: 100.0 mg/kg/injection, schedule: Q01DX009 (ip), vehicle: saline with Tween-80 95 % of control and 98 % of control | [2] 93 % of control | [3] 109 % of control

CCOC(CCl)(OCC)OCC
inactive: dose: 100.0 mg/kg/injection, schedule: Q04DX002 (ip), vehicle: saline with Tween-80 97 % of control | dose: 200.0 mg/kg/injection, schedule: Q04DX002 (ip), vehicle: saline with Tween-80 90 % of control

O=C(OC(C1COCO1)C(O)C1COCO1)c1ccccc1 (stereo unspecified)
inactive: dose: 100.0 mg/kg/injection, schedule: Q01DX001 (ip), vehicle: Klucel (hydroxypropylcellulose) (HPC) 96 % of control | dose: 200.0 mg/kg/injection, schedule: Q01DX001 (ip), vehicle: Klucel (hydroxypropylcellulose) (HPC) 105 % of control | dose: 400.0 mg/kg/injection, schedule: Q01DX001 (ip), vehicle: Klucel (hydroxypropylcellulose) (HPC) 107 % of control

CCCCCCCCCCC(CCCCCCCCCC)CC(C)(C)C
inactive: dose: 50.0 mg/kg/injection, schedule: Q01DX001 (ip), vehicle: saline with Tween-80 103 % of control | [1] 96 % of control | [2] 103 % of control

CCC(=O)C(CC(C)[N+](C)(C)C)(c1ccccc1)c1ccccc1 (stereo unspecified)
inactive: [4] 92 % of control

CN(C)C(=O)OCC[N+](C)(C)CCCCCC[N+](C)(C)CCOC(=O)N(C)C
inactive: dose: 12.0 mg/kg/injection, schedule: Q04DX003 (ip), vehicle: saline 105 % of control | dose: 25.0 mg/kg/injection, schedule: Q04DX003 (ip), vehicle: saline 96 % of control | dose: 50.0 mg/kg/injection, schedule: Q04DX003 (ip), vehicle: saline 97 % of control | dose: 75.0 mg/kg/injection, schedule: Q04DX003 (ip), vehicle: saline 92 % of control

C/C(=N\O)c1ccc[n+](Cc2ccc(C)cc2)c1
inactive: dose: 9.38 mg/kg/injection, schedule: Q01DX001 (ip), vehicle: other 97 % of control | dose: 18.75 mg/kg/injection, schedule: Q01DX001 (ip), vehicle: other 97 % of control

O=C(Nc1ccccc1F)OCCOc1ccc(Br)cc1
inactive: [7] 103 % of control | [8] 97 % of control | [9] 123 % of control

O=CC(NC(=O)C(O)C(O)C(O)C(O)CO)C(O)C(O)C(O)CO (stereo unspecified)
inactive: dose: 100.0 mg/kg/injection, schedule: Q04DX003 (ip), vehicle: saline 102 % of control | dose: 200.0 mg/kg/injection, schedule: Q04DX003 (ip), vehicle: saline 97 % of control | dose: 400.0 mg/kg/injection, schedule: Q04DX003 (ip), vehicle: saline 91 % of control

O=C1C=CC(=O)N1CCCN1C(=O)C=CC1=O
inactive: dose: 2.2 mg/kg/injection, schedule: Q01DX Z (ip), vehicle: methylcellulose (MC) 94 % of control | dose: 3.3 mg/kg/injection, schedule: Q01DX Z (ip), vehicle: methylcellulose (MC) 88 % of control | dose: 5.0 mg/kg/injection, schedule: Q01DX Z (ip), vehicle: methylcellulose (MC) 96 % of control

Cc1ccc(CNC(=O)NC(C)(C)C)c(C)c1
inactive: [7] 97 % of control | [8] 104 % of control | [9] 92 % of control

CCOC(=O)C1CCc2ccccc2CC1
inactive: dose: 200.0 mg/kg/injection, schedule: Q04DX003 (ip), vehicle: acetone 100 % of control

CSc1ccc(OCC2CO2)cc1C (stereo unspecified)
inactive: dose: 100.0 mg/kg/injection, schedule: Q04DX002 (ip), vehicle: saline 96 % of control | dose: 200.0 mg/kg/injection, schedule: Q04DX002 (ip), vehicle: saline 111 % of control | dose: 400.0 mg/kg/injection, schedule: Q04DX002 (ip), vehicle: saline 104 % of control
